According to paper PMC4489319 (ACS Infectious Diseases, 2015):

T1: ChsE4 (Rv3504, formerly FadE26), N-terminal His6 tag (Mycobacterium tuberculosis H37Rv, UniProt I6YCA3 1-400)
T1 sequence: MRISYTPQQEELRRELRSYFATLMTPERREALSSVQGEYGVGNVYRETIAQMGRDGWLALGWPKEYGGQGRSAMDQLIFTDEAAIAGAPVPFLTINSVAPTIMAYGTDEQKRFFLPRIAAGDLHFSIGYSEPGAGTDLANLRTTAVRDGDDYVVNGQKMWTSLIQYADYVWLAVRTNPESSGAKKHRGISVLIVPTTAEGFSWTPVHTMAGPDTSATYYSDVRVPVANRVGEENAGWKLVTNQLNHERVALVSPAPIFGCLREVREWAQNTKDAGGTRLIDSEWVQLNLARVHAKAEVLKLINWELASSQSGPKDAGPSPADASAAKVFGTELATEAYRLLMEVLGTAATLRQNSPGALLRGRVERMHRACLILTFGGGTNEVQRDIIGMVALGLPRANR

B1: ChsE5 (Rv3505, formerly FadE27) (enzyme)
chain: MDFTTTEAAQDLGGLVDTIVDAVCTPEHQRELDKLEQRFDRELWRKLIDAGILSSAAPESLGGDGFGVLEQVAVLVALGHQLAAVPYLESVVLAAGALARFGSPELQQGWGVSAVSGDRILTVALDGEMGEGPVQAAGTGHGYRLTGTRTQVGYGPVADAFLVPAETDSGAAVFLVAAGDPGVAVTALATTGLGSVGHLELNGAKVDAARRVGGTDVAVWLGTLSTLSRTAFQLGVLERGLQMTAEYARTREQFDRPIGSFQAVGQRLADGYIDVKGLRLTLTQAAWRVAEDSLASRECPQPADIDVATAGFWAAEAGHRVAHTIVHVHGGVGVDTDHPVHRYFLAAKQTEFALGGATGQLRRIGRELAETPA

Columns and labels:
ChsE4-ChsE5 = ChsE4-ChsE5 (Mycobacterium tuberculosis, UniProt I6YCA3)
[1] = biological target: T1, ChsE4 (Rv3504, formerly FadE26), …; experiment: AUC + other: LC/UV/MS

Row | Molecule | KM (ChsE4-ChsE5) | binding result [1]
1 | CC(CCC[C@@H](C)[C@H]1CC[C@H]2[C@@H]3CCC4=CC(=O)CC[C@]4(C)[C@H]3CC[C@]12C)C(=O)SCCNC(=O)CCNC(=O)[C@H](O)C(C)(C)COP(=O)(O)OP(=O)(O)OC[C@H]1O[C@@H](n2cnc3c(N)ncnc32)[C@H](O)[C@@H]1OP(=O)(O)O (some centres unmarked) [3-OCS-CoA] | 20 ± 2.7 µM | 
2 | B1 |  | binds
